Test results published in patent publication US4460596A, “Thienyloxazolylacetic acid derivatives and process for preparing” (Tanabe Seiyaku Co., Ltd., priority 1981, dated 1984).

How the values were obtained:
[1] = system: blood platelets (PRP); assay: Platelet aggregation-inhibiting activity in vitro (collagen, rat platelet-rich plasma); assay type: cell-based, male SD rats; details: final concentration 100 μg/ml, 37° C.
Protocol: (Platelet aggregation-inhibiting activity)
Blood was collected from the abdominal aorta of male SD rats (body weight: 250-300 g) which were anesthetized with ether. Nine volumes of said blood were mixed with one volume of an aqueous 3.8% (w/v) trisodium citrate solution, and the mixture was centrifuged at 500×g for 5 minutes to give platelet-rich plasma (hereinafter referred to as "PRP") as the supernatant solution. The bottom layer was further centrifuged at 1000×g for 10 minutes to give platelet-poor plasma (hereinafter referred to as "PPP") as the supernatant solution. PRP was diluted with PPP so that the blood platelet count was 8-10×10^5 /mm^3. Then, a mixture of 200 μl of said diluted PRP and 25 μl of a test compound solution (final concentration: 100 μg/ml) was introduced into a glass cell of SIENCO aggregometer (Sienco Inc., Morrison, Colo. Model DP-247-D). After the mixture was stirred at 1100 rpm at 37° C. for 2 minutes, 25 μl of a collagen solution (prepared by Holmsen's method described in Biochim. Biophys. Acta, Vol. 186, page 254(1969)) was added thereto, and the percentage inhibition of platelet aggregation was calculated in accordance with the following formula from the degree of the platelet aggregation which was estimated by Born's method (Nature, 194, page 927([…])). [formula]

[2] = system: serum cholesterol and serum triglyceride; assay: Hypolipidemic activity in rats (serum cholesterol and triglyceride, one-week diet); assay type: in vivo; details: male SD rats, 50 mg % in diet
Protocol: (§1) A test compound (50 mg %) was added to a commercial diet, and male SD rats (body weight: 120-140 g, a group of 5 rats) were fed with the diet ad libitum for one week. After the experimental period, blood was collected from the tail vein of the rats under ether anesthesia. Serum cholesterol and serum triglyceride were measured according to the methods of Zak (Amer. J. Clin. Pathol., Vol. 24, page 1307(1954)) and Van Handel-Zilversmit (J. Lab. & Clin. Med., Vol. 55, page 152(1957)), respectively. Then, the increase (%) in liver weight and the decrease (%) in serum cholesterol or triglyceride were calculated according to the following formulae: [formula]

[3] = Increase in liver weight in rats (one-week diet); assay type: in vivo; details: male SD rats, 50 mg % in diet
Protocol: as §1

[4] = system: platelet aggregation; assay: Platelet aggregation-inhibiting activity after oral administration (ex vivo); assay type: in vivo; details: 100 mg/kg, one hour after administration, male SD rats, collagen

Compound | inhibition at 100 µg/mL [1] [%] | Decrease (%) in serum cholesterol [2] [%] | Decrease (%) in serum triglyceride [2] [%] | increase (%) in liver weight [3] [%] | Percentage inhibition of platelet aggregation [4] [%]
CCOC(=O)C(C)(C)Oc1ccc(Cl)cc1 [Clofibrate, 2-(4-chlorophenoxy)-2-methylpropanoic acid ethyl ester, reference compound] | < 10 | 15 | 16 | 12 | –
O=C(O)Cc1nc(-c2ccc(F)cc2)oc1-c1cccs1 [2-[2-(4-fluorophenyl)-5-(2-thienyl)-4-oxazolyl]acetic acid] | ≥ 10 | 17 | 27 | – | –
CCCCCOC(=O)Cc1nc(-c2ccc(Cl)cc2)oc1-c1ccsc1 [n-pentyl 2-[2-(4-chlorophenyl)-5-(3-thienyl)-4-oxazolyl]acetate] | – | 19 | 45 | – | –
O=C(O)Cc1nc(-c2ccc(Cl)cc2)oc1-c1ccsc1 [2-[2-(4-chlorophenyl)-5-(3-thienyl)-4-oxazolyl]acetic acid] | ≥ 10 | 18 | 49 | – | –
CCOC(=O)Cc1nc(-c2ccc(F)cc2)oc1-c1cccs1 [ethyl 2-[2-(4-fluorophenyl)-5-(2-thienyl)-4-oxazolyl]acetate] | ≥ 10 | 17 | 43 | – | –
CCOC(=O)Cc1nc(-c2ccc(F)cc2)oc1-c1ccsc1 [ethyl 2-[2-(4-fluorophenyl)-5-(3-thienyl)-4-oxazolyl]acetate] | ≥ 10 | 19 | 31 | – | –
O=C(O)Cc1nc(-c2ccc(F)cc2)oc1-c1ccsc1 [2-[2-(4-fluorophenyl)-5-(3-thienyl)-4-oxazolyl]acetic acid] | ≥ 10 | 23 | 39 | – | 93 ± 6
CCCCCOC(=O)Cc1nc(-c2ccccc2)oc1-c1ccsc1 [n-pentyl 2-[2-phenyl-5-(3-thienyl)-4-oxazolyl]acetate] | ≥ 10 | 20 | 30 | – | –
